Measured values reported in patent publication US20250032425A1, “FIRST IN CLASS USE OF ESTROGEN RECEPTOR BETA AGONISTS IN TREATING ANGELMAN SYNDROME AND RELEVANT AUTISM SPECTRUM DISORDERS” (BROWN UNIVERSITY, priority 2023, published 2025).
Entries after “also recorded” stand apart in the source; their conditions may differ.

Tests used:
Format in all cases: cell-based, human
UBE3A-deficient iOPCs = experiment: Ki67 (and PCNA) immunoblotting in UBE3A-knockdown iOPCs: compound screen and rescue of proliferation; settings: for EC50: Homo sapiens, iOPCs treated with siUBE3A, Ki67 immunoblotting normalized to siNC plus vehicle, read-out: EC50 for rescue of Ki67 expression; for Ki67 expression (FIG. 19G) / PCNA expression (FIG. 19G): siUBE3A cells, normalized to GAPDH
Experimental: Given the scarcity of knowledge regarding UBE3A function in oligodendrocyte biology, a comprehensive exploration of various cellular functions was performed, leveraging the high-throughput capabilities of the iPSC-based methodology (e.g., as described herein). We selected over 45 compounds with known targeted cellular actions (Table 1). These were chosen based on their documented effects on UBE3A, their ability to promote oligodendrocyte development and myelination, or their protective 10 roles in neural tissue. UBE3A expression was modulated using siRNA, achieving a controlled reduction that decreased OPC proliferation by approximately 50%, as evidenced by Ki67 protein levels.
iPSC Culturing and Generation of Induced Human Brain Cells Including Oligodendroglia, Neurons (IN), Astrocytes (iAs) and Microglia (iMG) The generation of iPSC-derived human oligodendrocyte precursor cells (iOPCs) was carried out according to a previously published protocol by Vulakh and Yang et al., 2023 (Characterizing the Neuron-Glial Interactions by the Co-cultures of Human iPSC-Derived Oligodendroglia and Neurons. Methods Mol. Biol. 2683), which itself was a modification of an earlier protocol by Assetta et al., 2020 (Generation of Human Neurons and Oligodendrocytes from Pluripotent Stem Cells for Modeling Neuron-Oligodendrocyte Interactions. J Vis Exp.). The process began with the control iPSCs, which is a well-characterized control reference line acquired from the NIH-funded iPSC Neurodegenerative Disease Initiative (INDI, (Ramos, D. M., Skarnes, W. C., Singleton, A. B., Cookson, M. R., and Ward, M. E. (2021). Tackling neurodegenerative diseases with genomic engineering: A new stem cell initiative from the NIH. Neuron 109, 1080-1083. 10.1016/j.neuron.2021.03.022)), distributed by the Jackson Laboratory. These iPSCs were maintained in mTeSR plus medium (StemCell Technologies, #05825) and expanded in Stem Flex medium (Fisher Scientific. #A3349401) for the induction of neural progenitor cells (INPC). The iNPCs were derived by treating iPSCs with a commercial SMAD inhibitor medium (StemCell Technologies, #08582) for 7 days (Week 1). Subsequently, NPCs were further induced to become OPCs by a 7-day incubation (Week 2) with a chemically-defined OPC medium: DMEM/F12 medium (Thermo Fisher, #11320033) supplemented by 10 ng/ml PDGF-AA (R&D Systems, #221-AA-025), 1 μM SAG (Tocris, #4366), […] N-Acetyl-Cysteine (Millipore Sigma, #A9165-5G), 20 ng/mL bFGF (R&D Systems, #233-FB-025/CF), 1% N2 supplement (Thermo Fisher, #17502048), and 1% B27 supplement (Thermo Fisher, #17504044). […] The additional incubation with OL medium for 7-14 days (Week 4-5) yielded mature, myelinating OLs.
The siRNAs targeting UBE3A (Thermo Fisher, #4390815 and #4390816), estrogen receptors (Thermo Scientific #145909 for ESRβ, #145539 for ESRα, and #4390824 for GPER), and negative control (Thermo Scientific, #AM4615) were obtained commercially. The 10-20 nM final concentration was used with Lipofectamine RNAiMAX transfection reagent (Thermo Scientific #13778075) and incubated for at least 48 hours before the treatments of therapeutic compounds or other reagents.
Cells were collected by fast spin down in centrifuge tubes before lysis in RIPA buffer (ThermoFisher, #89901) supplemented with proteinase inhibitor cocktail (Sigma-Aldrich, #5892791001) on ice. Lysates were then spun down at 15000 rpm for 10 mins, the supernatant was collected and mixed with 4× Laemmle sample buffer (Bio-Rad, #1610747) and cooked 10 mins before SDS-PAGE and transferred with Bio-Rad fast transfer system, the membranes were blocked for one hour in 1× Tris Buffered Saline (TBS) with 1% Casein buffer (Bio-Rad, #1610782) and incubated with primary antibodies overnight at 4 degrees. […]

[1] = tested on: UBE3A-deficient iOPCs and iOLs; experiment: Oligodendrocyte differentiation of UBE3A-deficient iOPCs into iOLs (immunoblotting of Ki67, MAG, CNPase); settings: AC-186 (10 µM)
Experimental: FIG. 25C: Immunoblotting was conducted to assess the impact of UBE3A depletion on ESR-β expression during oligodendrocyte differentiation. Protein levels of ESR-β in UBE3A-deficient iOPCs and subsequently differentiated iOLs were quantified, normalized against the loading control GAPDH, and expressed relative to the iOPC+siNC control condition (set at 1.0). […] Levels of Ki67 and Myelin Associated Glycoprotein (MAG) were measured in UBE3A-deficient iOPCs and iOLs differentiated from them, normalized against GAPDH, and compared to the iOPC+siNC condition. n=4 experiments. FIG. 25E: Immunoblotting to examine the role of UBE3A for OPC self-renewal and oligodendrocyte differentiation across different developmental stages. Expression of maturation and myelination markers (MBP, MAG, PLP1, CNPase) was quantified following UBE3A depletion timed from iOPCs to pre-iOLs, normalized against TUBB1. and compared to the iOPC+siNC control condition (set at 1.0). n=4 experiments.

[2] = tested on: AS iOPCs differentiated into iOLs; experiment: Differentiation of AS patient-derived iOPCs into iOLs (MAG, CNPase, MBP); settings: AC-186 10 μM or clemastine 2.5 μM, 72 hours

SMILES | impact of UBE3A loss on OPC proliferation (FIG. 18F, 19G) (UBE3A-deficient iOPCs; ERβ activators of different structural classes) | EC50 (UBE3A-deficient iOPCs; 24 hours) | Ki67 expression (FIG. 19G) (UBE3A-deficient iOPCs; 10 μM, 24 hours) | PCNA expression (FIG. 19G) (UBE3A-deficient iOPCs; 10 μM, 24 hours) | restoration of Ki67 expression in compound screen (UBE3A-deficient iOPCs; 10 μM, 24 hours, Ki67 immunoblotting normalized to siNC=1.0) | oligodendrocyte differentiation (MAG, CNPase) with treatment at various stages, FIG. 26C ([1]; iOPC to pre-iOL to iOL stages) | oligodendrocyte differentiation (MAG), FIG. 25D ([1]; UBE3A-deficient iOLs, clemastine (2.5 μM), 3 days) | oligodendrocyte differentiation (MAG, CNPase, MBP) [2]
N#CC(Cc1ccc(O)cc1)c1ccc(O)cc1 (centres unmarked) [DPN, diarylpropionitrile, reference compound] | similarly mitigated the impact of UBE3A loss on OPC proliferation | ~19 nM | increased expression | increased expression |  |  |  | 
Oc1ccc(C2(c3ccccc3F)CCC(F)(F)CC2)cc1 [AC-186] |  | ~16 nM | increased expression | increased expression | restored; also recorded: effectively normalized proliferation levels; also recorded: Statistically significant; also recorded: capable of restoring Ki67 expression | beneficial effects on differentiation were observed when administered during the iOPC stage | no impact on differentiation | no impact on oligodendrocyte differentiation
